Data published in US20210345607A1, “MICROEMULSION FORMULATION CONTAINING CLACYFOS HERBICIDE, PREPARATION METHOD THEREFOR AND USE THEREOF” (Central China Normal University, priority 2018, published 2021).

Assays:
[1] = tested on: wheat; test: Safety of 15% and 25% clacyfos microemulsion used in wheat fields, increase in production (B9); type: in vivo
Text: The microemulsion of 15% clacyfos (the amount of clacyfos added is 15%, the preparation process is referred to preparation example A3) is in the dosage range of 180 g/hm^2 to 600 g/hm^2. The microemulsion of 25% clacyfos (the addition amount of the clacyfos is 25%, the preparation process is referred to preparation example A7) is in the dosage range of 150 g/hm^2 to 720 g/hm^2. At various testing areas, clacyfos was used by stems and leaves treatment of wheat field wheat seedlings.

[2] = tested on: Eleusine indica (L.) Gaertn; test: Inhibitory activity of clacyfos against 22 plants or weeds (B12); conditions: in vivo
Text: (§1) Combining the results of indoor and field tests of clacyfos, the herbicidal spectrum of clacyfos can be summarized as follows:
(§2) Echinochloa crusgalli Beava; Digitaria Sanguinalis scop; Alopecurus aequalis; Alopecurus japonicus steud; Setaria viridis; Cynodon dactylon; Eleusine indica; Leptochloa chinensis; Arthraxon hispidus; Eleusine indica; Imperata cyllndrlca; Cyperus difformis; Cyperus iria; Kyllinga brevifolia; Poa cnnua; Monochoria vaginalis; Potamogeton distinctus; Sagittaria pygmaea; Cyperus iria; Eleocharis yokoscensis; Digitaria adscendens; Equisetum arvenense.

[3] = tested on: Setaria viridis(L.) Beauv; test: as above; conditions: in vivo
Text: as §1, §2

[4] = tested on: Beta Vulgaris; test: as above; conditions: in vivo
Text: as §1, §2

[5] = tested on: Medicago saliva; test: as above; conditions: in vivo
Text: as §1, §2

[6] = tested on: Brassica pekinensis; test: as above; conditions: in vivo
Text: as §1, §2

[7] = tested on: Poa annua L.; test: as above; conditions: in vivo
Text: as §1, §2

[8] = tested on: Brassica campestris; test: as above; conditions: in vivo
Text: as §1, §2

[9] = tested on: Chenopodium album L.; test: as above; conditions: in vivo
Text: as §1, §2

[10] = tested on: Amaranthus retroflexus; test: as above; conditions: in vivo
Text: as §1, §2

[11] = tested on: Rumex crispus L.; test: as above; conditions: in vivo
Text: as §1, §2

[12] = tested on: Amaranthus rebroflexus L.; test: as above; conditions: in vivo
Text: as §1, §2

[13] = tested on: Ipomoea heperacea; test: as above; conditions: in vivo
Text: as §1, §2

[14] = tested on: Daucus carota L.; test: as above; conditions: in vivo
Text: as §1, §2

[15] = tested on: Herba Cirsii Jeponici; test: as above; conditions: in vivo
Text: as §1, §2

[16] = tested on: Galium aparine; test: as above; conditions: in vivo
Text: as §1, §2

[17] = tested on: Sinapis alba; test: as above; conditions: in vivo
Text: as §1, §2

[18] = tested on: Digitaria sanguinalis(L.) Scop; test: as above; conditions: in vivo
Text: as §1, §2

[19] = tested on: Echinochloa crusgalli (L.); test: as above; conditions: in vivo
Text: as §1, §2

[20] = tested on: Abutilontheophrasti Medicus; test: as above; conditions: in vivo
Text: as §1, §2

[21] = tested on: Cyperus microiria; test: as above; conditions: in vivo
Text: as §1, §2

[22] = tested on: Alopecurus aequalis Sobol; test: as above; conditions: in vivo
Text: as §1, §2

[23] = tested on: Eclipta prostrata L.; test: as above; conditions: in vivo
Text: as §1, §2

[24] = tested on: Dicotyledonous and sedge weeds; test: Clacyfos weeding spectrum, indoor and field tests (B12); type: in vivo; conditions: recommended dosage of 450 g/hm^2
Text: Combining the results of indoor and field tests of clacyfos, the herbicidal spectrum of clacyfos can be summarized as follows: […]

[25] = tested on: monocotyledonous weeds; test: as above; type: in vivo; conditions: 700 g/hm^2 to 800 g/hm^2
Text: as §1, §2

Cc1cc(Cl)ccc1OCC(=O)O [2-methyl-4-chlorophenoxyacetic acid]
Increase in production compared with the control agent ([1]; Henan, 32.5 g/mu): acid 32.5 g (5.51%) | phytotoxicity to wheat ([1]; Henan, 32.5 g/mu): a certain phytotoxicity | Increase in production compared with the control agent ([1]; Zaoyang, 40 g/mu): acid 40 g (20.91%)

COP(=O)(OC)C(C)OC(=O)COc1ccc(Cl)cc1Cl (centres unmarked) [clacyfos, O, O-dimethyl-1-(2,4-dichlorophenoxyacetoxy) ethyl phosphonate]
Visual activity [2]: 100% | Visual activity [3]: 50% | Visual activity [4]: 95% | Sensitivity [5]: Sensitive | Visual activity [5]: 90% | Visual activity [6]: 100% | Visual activity [7]: 50% | Visual activity [8]: 100% | Visual activity [9]: 100% | Visual activity [10]: 100% | Sensitivity [11]: Sensitive | Visual activity [11]: 80% | Visual activity [12]: 100% | Visual activity [13]: 100% | Visual activity [14]: 100% | Visual activity [15]: 100% | Visual activity [16]: 60% | Visual activity [17]: 95% | Visual activity [18]: 40% | Visual activity [19]: 30% | Sensitivity [20]: Sensitive | Visual activity [20]: 85% | Sensitivity [21]: Sensitive | Visual activity [21]: 90% | Sensitivity [22]: Resistance | Visual activity [22]: 0% | Visual activity [23]: 100% | control of the dicotyledonous and sedge weeds listed [24]: can be effectively controlled | control of the monocotyledonous weeds listed [25]: can be controlled
